Test results: article PMC2760403 (The Journal of organic chemistry, 2009)

Columns and labels:
Format in all cases: biochemical
[1] = target: M. tuberculosis Lumazine Synthase (Mycobacterium tuberculosis, UniProt P9WHE9); settings: recombinant M. tuberculosis LS; for kcat (rate constant ES → E + P): fit of the compound's data set; for kcat (rate constant ES → E + P) / Kis (inhibitor dissociation constant, ES + I ⇌ ESI): pH 7.0; for Kis (inhibitor dissociation constant, ES + I ⇌ ESI): substrate 1 varied, 2 constant
[2] = target: M. tuberculosis Riboflavin Synthase (Mycobacterium tuberculosis, UniProt P9WK35); assay: Riboflavin synthase kinetic inhibition assay; settings: recombinant M. tuberculosis RS; for kcat (rate constant ES → E + P): fit of the compound's data set; for kcat (rate constant ES → E + P) / Kis (inhibitor dissociation constant, ES + I ⇌ ESI): pH 7.0
[3] = target: E. coli Riboflavin Synthase (Escherichia coli, UniProt P0AFU8); assay: Riboflavin synthase kinetic inhibition assay; settings: recombinant E. coli RS; for kcat (rate constant ES → E + P): fit of the compound's data set; for kcat (rate constant ES → E + P) / Kis (inhibitor dissociation constant, ES + I ⇌ ESI): pH 7.0
[4] = target: T1, S. pombe Lumazine Synthase (Schizosaccharomyces pombe, UniProt Q9UUB1); assay: Lumazine synthase kinetic inhibition assay; settings: recombinant S. pombe LS; for kcat (rate constant ES → E + P): fit of the compound's data set; for kcat (rate constant ES → E + P) / Kis (inhibitor dissociation constant, ES + I ⇌ ESI): pH 7.0; for Kis (inhibitor dissociation constant, ES + I ⇌ ESI): substrate 1 varied, 2 constant
T1 sequence (Q9UUB1 1-159): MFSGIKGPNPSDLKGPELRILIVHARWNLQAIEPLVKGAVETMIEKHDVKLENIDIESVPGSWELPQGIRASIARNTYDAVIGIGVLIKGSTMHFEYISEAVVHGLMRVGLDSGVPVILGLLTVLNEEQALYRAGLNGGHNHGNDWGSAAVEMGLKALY

Sequence of M. tuberculosis Riboflavin Synthase (P9WK35 whole entry): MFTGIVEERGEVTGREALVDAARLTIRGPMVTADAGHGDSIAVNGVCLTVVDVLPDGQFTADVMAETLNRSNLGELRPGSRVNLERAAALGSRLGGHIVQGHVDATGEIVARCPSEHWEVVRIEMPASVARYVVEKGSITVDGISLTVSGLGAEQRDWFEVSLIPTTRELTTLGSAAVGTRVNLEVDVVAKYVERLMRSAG
Sequence of M. tuberculosis Lumazine Synthase (P9WHE9 whole entry): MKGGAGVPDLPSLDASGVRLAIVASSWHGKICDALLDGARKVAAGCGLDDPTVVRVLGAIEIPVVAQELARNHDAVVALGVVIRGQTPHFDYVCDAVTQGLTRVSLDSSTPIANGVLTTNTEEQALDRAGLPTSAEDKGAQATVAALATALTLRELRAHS
Sequence of E. coli Riboflavin Synthase (P0AFU8 whole entry): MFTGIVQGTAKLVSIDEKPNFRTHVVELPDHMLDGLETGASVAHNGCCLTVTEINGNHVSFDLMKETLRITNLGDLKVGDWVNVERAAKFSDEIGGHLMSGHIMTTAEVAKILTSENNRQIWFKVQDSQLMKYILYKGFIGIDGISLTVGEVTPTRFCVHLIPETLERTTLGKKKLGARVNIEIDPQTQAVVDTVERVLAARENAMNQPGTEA

SMILES | Mode of inhibition [1] | kcat (rate constant ES → E + P) [1] [s⁻¹] | Kis (inhibitor dissociation constant, ES + I ⇌ ESI) [1] [µM] | Mode of inhibition [2] | kcat (rate constant ES → E + P) [2] [s⁻¹] | Kis (inhibitor dissociation constant, ES + I ⇌ ESI) [2] [µM] | Mode of inhibition [3] | kcat (rate constant ES → E + P) [3] [s⁻¹] | Kis (inhibitor dissociation constant, ES + I ⇌ ESI) [3] [µM] | Mode of inhibition [4] | kcat (rate constant ES → E + P) [4] [s⁻¹] | Kis (inhibitor dissociation constant, ES + I ⇌ ESI) [4] [µM]
O=c1[nH]c(/C=C/c2cccc(O)c2O)c([N+](=O)[O-])c(=O)[nH]1 [Compound 17, (E)-6-(2,3-Dihydroxystyryl)-5-nitropyrimidine-2,4(1H,3H)-dione] | Mixed | 0.006 ± 0.00017 | 81 ± 29 | Partial | 0.0045 ± 0.00033 | 37 ± 16 | Mixed | 0.085 ± 0.0017 | 26 ± 4 | Partial | 0.0262 ± 0.00033 | 16 ± 3
O=c1[nH]c(/C=C/c2cc(O)ccc2O)c([N+](=O)[O-])c(=O)[nH]1 [Compound 18, (E)-6-(2,5-Dihydroxystyryl)-5-nitropyrimidine-2,4(1H,3H)-dione] | Uncompetitive | 0.00283 ± 0.00017 | 420 ± 168 | Uncompetitive | 0.00367 ± 0.00033 | 398 ± 156 | Uncompetitive | 0.085 ± 0.0017 | 122 ± 10 | Uncompetitive | 0.0245 ± 0.00067 | 53 ± 5
